Test results from ChEMBL document CHEMBL1201862, “PubChem BioAssay data set” (2004).
Each block holds one compound with its values, some of them ahead of it. The source made the active and inactive calls.

Tests used:
[1] = target: T1, Delta-type opioid receptor (Homo sapiens, UniProt P41143); assay: HTS Image-Based Screen for Antagonists of the DOR Receptor. [Related pubchem assays (depositor defined):AID1777, AID1785, AID1786, AID2133]; assay type: functional
Mu-type opioid receptor [2] = target: T2, Mu-type opioid receptor (Homo sapiens, UniProt P35372); assay: HTS Image-Based Screen for Agonists of the MOR Receptor. [Related pubchem assays (depositor defined):AID1777, AID1785, AID1786, AID2133]; assay type: functional
[3] = target: T1, Delta-type opioid receptor; assay: HTS Image-Based Screen for Agonists of the DOR Receptor. [Related pubchem assays (depositor defined):AID1777, AID1786, AID2133]; assay type: functional
[4] = target: T3, Kappa-type opioid receptor (Homo sapiens, UniProt P41145); assay type: functional
[5] = target: T3, Kappa-type opioid receptor; assay type: functional; remark: listed apart in the source
[6] = target: T3, Kappa-type opioid receptor; assay: SAR analysis of small molecule agonists of the kappa opioid receptor via a luminescent beta-arrestin assay. [Related pubchem assays (depositor defined):AID1777, AID1786, AID1966, AID2133, AID2136, AID2348, AID2352, AID2357, AID2359, AID2370, AID2420, AID2478, AID2491, AID2492, AID2493, AID2497, AID2498, AID2500, AID449737, AID488822, AID488842]; assay type: functional
Mu-type opioid receptor [7] = target: T2, Mu-type opioid receptor; assay: MOR agonists by imaging, SAR follow-up, image-based (AID 2352); assay type: functional
[8] = target: T1, Delta-type opioid receptor; assay: DOR agonists, SAR follow-up, image-based (AID 2370); assay type: functional
[9] = target: T3, Kappa-type opioid receptor; assay: KOR antagonists by imaging, SAR follow-up, image-based (AID 2348); assay type: functional
Mu-type opioid receptor [10] = target: T2, Mu-type opioid receptor; assay: MOR antagonists, SAR follow-up, image-based (AID 2420); assay type: functional;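 further: compounds added before stimulation of receptor with agonist DAMGO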
[11] = target: T3, Kappa-type opioid receptor; assay: KOR agonist analogs, imaging readout, SAR follow-up, image-based (AID 2359); assay type: functional
[12] = target: T1, Delta-type opioid receptor; assay: DOR antagonists, SAR follow-up, image-based (AID 2357); assay type: functional
[13] = target: Voltage-dependent T-type calcium channel subunit alpha-1H (Homo sapiens, UniProt O95180); assay: Cav3.2 T-type channel inhibitors, cell-based, synthetic library set 1, calcium flux (AID 493022); assay type: functional
[14] = target: T3, Kappa-type opioid receptor; assay: kappa opioid receptor blockers, cell-based, luminescence, beta-arrestin, SAR follow-up (AID 2285); assay type: functional
Hexokinase = Hexokinase (Trypanosoma brucei, UniProt Q38C41); assay: Confirmation assay for inhibitors of Trypanosoma brucei hexokinase 1-Analogue-first series. [Related pubchem assays (depositor defined):AID1430, AID1632, AID2516, AID2560, AID2579, AID2600, AID449725, AID492951]; assay type: functional
Trypsin = Trypsin (Sus scrofa, UniProt P00761); assay: porcine trypsin inhibitors, dose response, selectivity assay for Rce1 protease inhibitor project, biochemical, quenched peptide fluorescence, cherry-pick (AID 488789)
[15] = growth suppression of PTEN-null colon cells, dose response, cell-based, HCT116 PTEN knockout (AID 1047); assay type: functional;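 further: HCT116 colon tumor cells with PTEN knocked out; cells exposed to compound for 60 hours before readout; potency for loss of cell viability measured by luminescence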
[16] = growth suppression of beta-catenin-knockout colon cells, dose response, cell-based, HCT116, human colon tumor (AID 1045); assay type: functional;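 further: HCT116 colon tumor cells with beta catenin knocked out; cells exposed to compound for 60 hours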
[17] = Luminescence Cell-Based Dose Retest to Confirm Inhibitors of Cancer Stem Cells. [Related pubchem assays (depositor defined):AID2717, AID2721]; assay type: functional; conditions: Homo sapiens
Beta-galactosidase = Beta-galactosidase (Escherichia coli, UniProt Q8VNN2); assay: beta-galactosidase enzyme inhibitors and activators, dose response, artefact control for CCR6 antagonist project, biochemical, E. coli enzyme, set 3 (AID 504712); assay type: functional
Cytochrome P450 2C19 = Cytochrome P450 2C19 (Homo sapiens, UniProt P33261); assay: Cytochrome panel assay with activity outcomes. Panel member name: p450-cyp2c19 Compounds with AC50 equal or less than 10 uM are considered active; assay type: functional; conditions: read-out: AC50
[18] = target: Heat shock protein HSP 90-alpha (Homo sapiens, UniProt P07900); assay type: functional, organism-based
INS1 = assay: beta cell apoptosis inhibitors, cytokine rescue, dose response, luminescence, retest (AID 449756); assay type: functional, cell-based; conditions: Rattus norvegicus;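 further: cell death triggered by IL-1 beta plus TNF-alpha plus IFN-gamma mixture; protective hits raise ATP signal compared with cytokine alone wells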
Cytochrome P450 2C9 = Cytochrome P450 2C9 (Homo sapiens, UniProt P11712)

T1 sequence (P41143 whole entry): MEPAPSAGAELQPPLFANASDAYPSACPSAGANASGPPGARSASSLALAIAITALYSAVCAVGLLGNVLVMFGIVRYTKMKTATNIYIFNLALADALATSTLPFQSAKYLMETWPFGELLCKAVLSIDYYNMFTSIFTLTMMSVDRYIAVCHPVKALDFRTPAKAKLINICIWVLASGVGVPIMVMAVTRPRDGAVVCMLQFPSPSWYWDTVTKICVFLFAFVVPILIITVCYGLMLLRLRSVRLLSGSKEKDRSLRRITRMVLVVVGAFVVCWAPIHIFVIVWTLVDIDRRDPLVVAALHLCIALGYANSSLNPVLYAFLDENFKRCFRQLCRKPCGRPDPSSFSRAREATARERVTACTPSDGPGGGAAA
T2 sequence (P35372 whole entry): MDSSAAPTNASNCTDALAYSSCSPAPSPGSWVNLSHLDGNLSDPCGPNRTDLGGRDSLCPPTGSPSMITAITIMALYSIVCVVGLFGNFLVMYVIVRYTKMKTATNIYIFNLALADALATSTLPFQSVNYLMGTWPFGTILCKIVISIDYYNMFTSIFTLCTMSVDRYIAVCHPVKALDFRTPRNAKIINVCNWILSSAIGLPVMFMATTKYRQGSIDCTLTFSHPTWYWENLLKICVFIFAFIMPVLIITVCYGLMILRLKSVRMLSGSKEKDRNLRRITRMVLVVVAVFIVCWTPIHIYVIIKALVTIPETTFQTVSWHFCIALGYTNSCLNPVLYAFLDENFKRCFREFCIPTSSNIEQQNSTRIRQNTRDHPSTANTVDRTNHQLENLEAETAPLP
T3 sequence (P41145 whole entry): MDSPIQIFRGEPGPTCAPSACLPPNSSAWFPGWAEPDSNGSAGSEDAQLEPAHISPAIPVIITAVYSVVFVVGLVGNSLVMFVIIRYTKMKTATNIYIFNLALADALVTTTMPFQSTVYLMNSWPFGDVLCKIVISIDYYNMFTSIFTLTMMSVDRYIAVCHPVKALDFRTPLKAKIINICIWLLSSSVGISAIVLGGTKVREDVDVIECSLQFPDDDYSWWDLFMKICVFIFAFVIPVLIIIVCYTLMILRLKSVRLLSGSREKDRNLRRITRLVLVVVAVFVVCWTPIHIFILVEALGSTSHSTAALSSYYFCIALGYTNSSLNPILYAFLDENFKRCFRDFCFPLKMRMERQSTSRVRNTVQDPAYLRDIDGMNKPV
Voltage-dependent T-type calcium channel subunit alpha-1H, sequence (O95180 whole entry): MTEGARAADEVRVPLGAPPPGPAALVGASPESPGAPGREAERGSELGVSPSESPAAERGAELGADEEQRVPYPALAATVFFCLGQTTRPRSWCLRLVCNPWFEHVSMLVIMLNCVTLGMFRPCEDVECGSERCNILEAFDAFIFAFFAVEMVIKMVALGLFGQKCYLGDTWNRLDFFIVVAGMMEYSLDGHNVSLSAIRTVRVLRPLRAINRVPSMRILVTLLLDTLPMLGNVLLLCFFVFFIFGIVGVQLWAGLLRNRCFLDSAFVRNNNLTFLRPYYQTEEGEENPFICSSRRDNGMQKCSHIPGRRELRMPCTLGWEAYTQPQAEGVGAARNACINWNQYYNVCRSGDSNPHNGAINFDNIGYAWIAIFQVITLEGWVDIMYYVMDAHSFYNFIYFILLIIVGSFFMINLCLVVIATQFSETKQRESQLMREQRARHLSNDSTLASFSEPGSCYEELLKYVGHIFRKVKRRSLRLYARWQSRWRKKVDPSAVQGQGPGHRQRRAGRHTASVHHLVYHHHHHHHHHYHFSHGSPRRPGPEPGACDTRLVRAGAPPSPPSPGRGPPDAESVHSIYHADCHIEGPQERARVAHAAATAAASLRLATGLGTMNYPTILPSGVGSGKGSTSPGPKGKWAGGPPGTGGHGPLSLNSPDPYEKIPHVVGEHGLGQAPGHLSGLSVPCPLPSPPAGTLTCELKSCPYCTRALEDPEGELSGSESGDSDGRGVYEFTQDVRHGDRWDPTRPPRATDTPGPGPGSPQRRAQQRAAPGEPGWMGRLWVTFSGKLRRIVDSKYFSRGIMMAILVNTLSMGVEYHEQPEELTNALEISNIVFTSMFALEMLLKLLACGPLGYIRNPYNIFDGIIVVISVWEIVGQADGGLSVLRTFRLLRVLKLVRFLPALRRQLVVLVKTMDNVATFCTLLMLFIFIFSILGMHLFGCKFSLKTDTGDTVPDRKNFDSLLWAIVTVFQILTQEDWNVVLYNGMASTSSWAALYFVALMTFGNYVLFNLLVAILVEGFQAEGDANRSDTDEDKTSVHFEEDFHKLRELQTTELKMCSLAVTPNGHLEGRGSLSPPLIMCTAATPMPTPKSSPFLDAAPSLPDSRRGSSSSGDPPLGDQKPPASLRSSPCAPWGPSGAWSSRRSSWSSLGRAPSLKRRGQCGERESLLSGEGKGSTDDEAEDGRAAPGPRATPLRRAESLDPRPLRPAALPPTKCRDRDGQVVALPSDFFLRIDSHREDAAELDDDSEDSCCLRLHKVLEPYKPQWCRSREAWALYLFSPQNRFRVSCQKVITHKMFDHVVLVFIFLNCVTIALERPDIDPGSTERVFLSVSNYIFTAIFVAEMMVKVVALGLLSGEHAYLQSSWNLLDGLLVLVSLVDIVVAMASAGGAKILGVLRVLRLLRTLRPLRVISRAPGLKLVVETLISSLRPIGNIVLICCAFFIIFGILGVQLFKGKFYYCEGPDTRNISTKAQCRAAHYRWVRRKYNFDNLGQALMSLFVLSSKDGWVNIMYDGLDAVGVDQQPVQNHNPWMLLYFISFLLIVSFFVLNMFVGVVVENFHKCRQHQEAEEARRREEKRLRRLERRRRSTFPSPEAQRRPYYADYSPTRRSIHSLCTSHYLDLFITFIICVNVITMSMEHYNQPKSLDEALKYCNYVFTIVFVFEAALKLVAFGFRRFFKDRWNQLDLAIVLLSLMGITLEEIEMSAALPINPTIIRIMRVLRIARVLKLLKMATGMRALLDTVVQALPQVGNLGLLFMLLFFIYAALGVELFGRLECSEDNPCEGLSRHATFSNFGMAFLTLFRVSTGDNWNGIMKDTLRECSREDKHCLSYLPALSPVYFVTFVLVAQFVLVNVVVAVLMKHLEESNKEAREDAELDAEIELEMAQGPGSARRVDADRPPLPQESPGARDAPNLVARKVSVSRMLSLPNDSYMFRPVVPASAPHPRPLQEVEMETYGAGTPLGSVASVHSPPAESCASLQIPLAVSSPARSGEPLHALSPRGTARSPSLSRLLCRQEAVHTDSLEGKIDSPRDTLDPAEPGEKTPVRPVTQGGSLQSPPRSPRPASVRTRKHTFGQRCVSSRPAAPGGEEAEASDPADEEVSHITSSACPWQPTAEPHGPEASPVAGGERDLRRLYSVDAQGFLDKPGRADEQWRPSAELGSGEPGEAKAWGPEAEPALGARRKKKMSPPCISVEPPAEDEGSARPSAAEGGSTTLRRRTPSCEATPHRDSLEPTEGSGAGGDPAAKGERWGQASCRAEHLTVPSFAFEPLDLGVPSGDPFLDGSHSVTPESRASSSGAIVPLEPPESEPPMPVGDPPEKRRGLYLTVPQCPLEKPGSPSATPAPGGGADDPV
Beta-galactosidase, sequence (Q8VNN2 whole entry): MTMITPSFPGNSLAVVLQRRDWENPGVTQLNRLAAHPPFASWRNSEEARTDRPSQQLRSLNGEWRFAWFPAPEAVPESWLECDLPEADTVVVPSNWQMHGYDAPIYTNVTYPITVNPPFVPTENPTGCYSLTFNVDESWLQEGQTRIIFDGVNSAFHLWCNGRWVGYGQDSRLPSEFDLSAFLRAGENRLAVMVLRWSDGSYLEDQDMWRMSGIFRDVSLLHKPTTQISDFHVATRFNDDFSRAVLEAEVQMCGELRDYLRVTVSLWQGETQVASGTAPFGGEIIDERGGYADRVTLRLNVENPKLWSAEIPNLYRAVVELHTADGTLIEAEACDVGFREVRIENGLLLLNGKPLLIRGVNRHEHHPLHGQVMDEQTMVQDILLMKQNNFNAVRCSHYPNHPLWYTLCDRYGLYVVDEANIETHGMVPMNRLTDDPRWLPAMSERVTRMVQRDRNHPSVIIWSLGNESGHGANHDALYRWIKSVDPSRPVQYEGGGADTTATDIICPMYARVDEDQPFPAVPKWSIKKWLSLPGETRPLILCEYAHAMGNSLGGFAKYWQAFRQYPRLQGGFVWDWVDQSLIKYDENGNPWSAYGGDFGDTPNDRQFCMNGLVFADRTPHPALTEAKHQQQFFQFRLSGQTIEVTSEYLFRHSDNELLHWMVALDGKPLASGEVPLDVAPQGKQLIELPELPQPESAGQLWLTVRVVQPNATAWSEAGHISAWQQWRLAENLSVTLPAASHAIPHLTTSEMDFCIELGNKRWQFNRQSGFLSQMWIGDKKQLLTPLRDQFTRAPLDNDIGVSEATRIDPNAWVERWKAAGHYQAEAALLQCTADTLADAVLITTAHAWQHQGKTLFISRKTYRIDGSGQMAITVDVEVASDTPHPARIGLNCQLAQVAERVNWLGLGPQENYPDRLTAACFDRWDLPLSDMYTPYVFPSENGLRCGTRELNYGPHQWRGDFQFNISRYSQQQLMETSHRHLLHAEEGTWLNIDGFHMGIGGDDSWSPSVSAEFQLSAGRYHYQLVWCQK
Trypsin, sequence (P00761 whole entry): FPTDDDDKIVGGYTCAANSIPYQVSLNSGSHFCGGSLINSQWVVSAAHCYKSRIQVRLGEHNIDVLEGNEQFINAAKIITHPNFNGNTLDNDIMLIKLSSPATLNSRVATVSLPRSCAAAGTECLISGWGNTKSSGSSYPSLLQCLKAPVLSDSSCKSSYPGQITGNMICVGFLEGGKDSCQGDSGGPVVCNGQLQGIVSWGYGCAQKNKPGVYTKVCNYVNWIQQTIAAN

- IC50 [1]: > 32 µM (inactive)
- EC50 (Mu-type opioid receptor [2]): > 32 µM (inactive)
- EC50 [3]: > 32 µM (inactive)
- EC50 [4]: 1.25 µM
- EC50 [5]: 2.21 µM
- EC50 [6]: 1.86 µM (active)
- EC50 (Mu-type opioid receptor [7]): > 32 µM (inactive)
- EC50 [8]: > 32 µM (inactive)
- IC50 [9]: > 32 µM (inactive)
- IC50 (Mu-type opioid receptor [10]): > 32 µM (inactive)
- EC50 [11]: 0.929 µM (active)
- IC50 [12]: > 32 µM (inactive)
Structure (SMILES): Clc1ccc(CSc2nnc(-c3ccccn3)n2Cc2ccco2)c(Cl)c1

- EC50 [13]: 4.6 µM (active)
Structure (SMILES): O=C(COc1ccccc1Cl)Nc1nnc(-c2ccc(F)cc2)o1

- AC50 (Trypsin): 55.8 µM (active)
Structure (SMILES): Cc1ccc(S(=O)(=O)c2cn(C)c3cc(N4CCOCC4)c(F)cc3c2=O)cc1

The next lines start with the compound.

Structure (SMILES): O=C(Cn1c(=O)c2cccn2c2cccnc21)NCCCN1CCN(c2ccc(F)cc2)CC1
- EC50 (Mu-type opioid receptor [7]): > 32 µM (inactive)
- EC50 [8]: > 32 µM (inactive)
- IC50 [9]: 15.2 µM (inactive)
- IC50 (Mu-type opioid receptor [10]): > 32 µM (inactive)
- EC50 [11]: > 32 µM (inactive)
- IC50 [12]: > 32 µM (inactive)
- IC50 [14]: > 10 µM (inactive)

Structure (SMILES): COc1ccc(C(=O)Nc2cc(C)ccc2C(=O)O)cc1
- IC50 (Hexokinase): > 25 µM (inactive)

Structure (SMILES): Cc1cccc(NC(=S)N/N=C/c2ccc([N+](=O)[O-])s2)c1
- EC50 [15]: 3.06 µM (active)
- EC50 [16]: 1.95 µM (active)
- AC50 [17]: 1.84 µM (active)
- IC50 (Beta-galactosidase): > 66.6 µM (inactive)
- AC50 (Cytochrome P450 2C19): 1.12 µM (inconclusive)
- AC50 [18]: 15.6 µM (active)
- AC50 (INS1): 3.86 µM (active)
- AC50 (Cytochrome P450 2C9): 1.78 µM (inconclusive)
